Measurements: patent US7759345B2, “Antitumoral derivatives of ET-743” (priority 2001, dated 2010)

Assays:
K-562 = assay: Inhibition of cells growth by colorimetric assay (SRB), K-562; type: cell-based; settings: SRB, 48 hours exposure
Outline: (§1)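 Cells in RPMI 1640 with 10% FBS were seeded at 5×10^3 per well, allowed 18 h to attach, then exposed to compound (10 to 10^−8 μg/ml, in DMSO/EtOH/PBS 0.5:0.5:99) for 48 h. After TCA fixation and SRB staining, bound dye was solubilized in Tris and OD read at 490 nm; GI, TGI and LC derived from triplicates.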

A-549 = assay: Inhibition of cells growth by colorimetric assay (SRB), A-549; type: cell-based; settings: SRB, 48 hours exposure
Outline: as §1

SK-MEL-28 = assay: Inhibition of cells growth by colorimetric assay (SRB), SK-MEL-28; type: cell-based; settings: SRB, 48 hours exposure
Outline: as §1

HT-29 = assay: Inhibition of cells growth by colorimetric assay (SRB), HT-29; type: cell-based; settings: SRB, 48 hours exposure
Outline: as §1

LoVo = assay: Inhibition of cells growth by colorimetric assay (SRB), LoVo; type: cell-based; settings: SRB, 48 hours exposure
Outline: as §1

LoVo-Dox = assay: Inhibition of cells growth by colorimetric assay (SRB), LoVo-Dox; type: cell-based; settings: SRB, 48 hours exposure
Outline: as §1

DU-145 = assay: Inhibition of cells growth by colorimetric assay (SRB), DU-145; type: cell-based; settings: SRB, 48 hours exposure
Outline: as §1

LNCaP = assay: Inhibition of cells growth by colorimetric assay (SRB), LNCaP; type: cell-based; settings: SRB, 48 hours exposure
Outline: as §1

SK-BR-3 = assay: Inhibition of cells growth by colorimetric assay (SRB), SK-BR-3; type: cell-based; settings: SRB, 48 hours exposure
Outline: as §1

IGROV-1 = assay: Inhibition of cells growth by colorimetric assay (SRB), IGROV-1; type: cell-based; settings: SRB, 48 hours exposure
Outline: as §1

IGROV-ET = assay: Inhibition of cells growth by colorimetric assay (SRB), IGROV-ET; type: cell-based; settings: SRB, 48 hours exposure
Outline: as §1

SK-OV-3 = assay: Inhibition of cells growth by colorimetric assay (SRB), SK-OV-3; type: cell-based; settings: SRB, 48 hours exposure
Outline: as §1

PANC-1 = assay: Inhibition of cells growth by colorimetric assay (SRB), PANC-1; type: cell-based; settings: SRB, 48 hours exposure
Outline: as §1

HMEC1 = assay: Inhibition of cells growth by colorimetric assay (SRB), HMEC1; type: cell-based; settings: SRB, 48 hours exposure
Outline: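 5×10^3 cells/well; 18 h attach; compound 10–10^−8 μg/ml in DMSO/EtOH/PBS (0.5:0.5:99), 48 h, 37 °C, 5% CO2; cold 50% TCA fix 60 min 4 °C; 0.4% SRB 10 min RT; Tris solubilization; OD 490 nm; triplicates.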

Text for Heart: (§2) Toxicity was asssessed by the methods reported in Toxicology in Vitro, 15 (2001) 571-577, J. Luber Narod et al.: “Evaluation of the use of in vitro methodolodies as tools for screening new compounds for potential in vivo toxicity”.
Text for Kidney: as §2
Text for Liver: as §2
Text for Myelo: as §2
Text for Skeletal: as §2

COc1cc2c(cc1O)CCN(C)[C@]21CS[C@@H]2c3c(OC(C)=O)c(C)c4c(c3[C@H](COC1=O)N1C2[C@H]2c3c(cc(C)c(OC)c3O)C[C@@H]([C@@H]1O)N2C)OCO4 (some centres unmarked) [Compound 93]
GI50 (K-562; Homo sapiens, K562, 48 h, K-562, read-out: K-562 GI50): 0.611 nM
LC50 (50% cell killing) (K-562; Homo sapiens, K562, 48 h, read-out: K-562 LC50, K-562): 9540 nM
K-562 TGI (K-562; K-562): 1.29E-08
A-549 TGI (A-549; A-549): 2.90E-09
GI50 (A-549; Homo sapiens, A549, 48 h, A-549, read-out: A-549 GI50): 0.463 nM
LC50 (concentration for 50% cell killing) (A-549; Homo sapiens, A549, 48 h, read-out: A-549 LC50, A-549): 12.9 nM
GI50 (SK-MEL-28; Homo sapiens, SK-MEL-28, 48 h, MEL-28, read-out: MEL-28 GI50): 0.281 nM
CC50 (SK-MEL-28; Homo sapiens, SK-MEL-28, 48 h, read-out: MEL-28 LC50, MEL-28): 3.58 nM
MEL-28 TGI (SK-MEL-28; MEL-28): 6.24E-10
HT-29 TGI (HT-29; HT-29): 1.29E-08
GI50 (HT-29; Homo sapiens, HT-29, 48 h, HT-29, read-out: HT-29 GI50): 0.635 nM
LC50 (concentration for 50% cell killing) (HT-29; Homo sapiens, HT-29, 48 h, read-out: HT-29 LC50, HT-29): 12900 nM
GI50 (LoVo; Homo sapiens, LoVo, 48 h, LOVO, read-out: LOVO GI50): 0.768 nM
LC50 (concentration for 50% cell killing) (LoVo; Homo sapiens, LoVo, 48 h, read-out: LOVO LC50, LOVO): 12900 nM
LOVO TGI (LoVo; LOVO): 4.58E-09
GI50 (LoVo-Dox; Homo sapiens, 48 h, LOVO-DOX, read-out: LOVO-DOX GI50): 7.71 nM
CC50 (LoVo-Dox; Homo sapiens, 48 h, read-out: LOVO-DOX LC50, LOVO-DOX): 12900 nM
LOVO-DOX TGI (LoVo-Dox; LOVO-DOX): 9.87E-08
DU-145 TGI (DU-145; DU-145): 6.30E-10
GI50 (DU-145; Homo sapiens, DU-145, 48 h, DU-145, read-out: DU-145 GI50): 0.331 nM
CC50 (DU-145; Homo sapiens, DU-145, 48 h, read-out: DU-145 LC50, DU-145): 1.29 nM
GI50 (LNCaP; Homo sapiens, LNCaP, 48 h, read-out: LNCAP GI50, LNCAP): 2.85 nM
CC50 (LNCaP; Homo sapiens, LNCaP, 48 h, read-out: LNCAP LC50, LNCAP): 129 nM
LNCAP TGI (LNCaP; LNCAP): 6.77E-09
GI50 (SK-BR-3; Homo sapiens, SK-BR-3, 48 h, SK-BR3, read-out: SK-BR3 GI50): 0.445 nM
CC50 (SK-BR-3; Homo sapiens, SK-BR-3, 48 h, read-out: SK-BR3 LC50, SK-BR3): 9.5 nM
SK-BR3 TGI (SK-BR-3; SK-BR3): 1.96E-09
GI50 (IGROV-1; Homo sapiens, IGROV-1, 48 h, IGROV, read-out: IGROV GI50): 0.214 nM
CC50 (IGROV-1; Homo sapiens, IGROV-1, 48 h, read-out: IGROV LC50, IGROV): 129 nM
IGROV TGI (IGROV-1; IGROV): 6.46E-10
GI50 (IGROV-ET; Homo sapiens, 48 h, IGROV-ET, read-out: IGROV-ET GI50): 21.5 nM
CC50 (IGROV-ET; Homo sapiens, 48 h, read-out: IGROV-ET LC50, IGROV-ET): 12900 nM
IGROV-ET TGI (IGROV-ET; IGROV-ET): 1.31E-07
GI50 (SK-OV-3; Homo sapiens, SK-OV-3, 48 h, SK-OV3, read-out: SK-OV3 GI50): 0.409 nM
LC50 (SK-OV-3; Homo sapiens, SK-OV-3, 48 h, read-out: SK-OV3 LC50, SK-OV3): 12900 nM
SK-OV3 TGI (SK-OV-3; SK-OV3): 1.29E-09
GI50 (PANC-1; Homo sapiens, PANC-1, 48 h, PANC-1, read-out: PANC-1 GI50): 0.314 nM
LC50 (concentration for 50% net cell kill) (PANC-1; Homo sapiens, PANC-1, 48 h, read-out: PANC-1 LC50, PANC-1): 12900 nM
PANC-1 TGI (PANC-1; PANC-1): 1.29E-09
HMEC-1 TGI (HMEC1; HMEC-1): 1.55E-10
GI50 (HMEC1; Homo sapiens, HMEC-1, 48 h, HMEC-1, read-out: HMEC-1 GI50): 0.037 nM
LC50 (HMEC1; Homo sapiens, HMEC-1, 48 h, read-out: HMEC-1 LC50, HMEC-1): 0.487 nM
Toxicity Data Liver (Liver): 1.13E-08
Toxicity Data Heart (Heart): 4.46E-08
Toxicity Data Myelo (Myelo): 3.35E-09
Toxicity Data Skeletal (Skeletal): 5.52E-10
Toxicity Data Kidney (Kidney): 6.32E-08
